From patent US20050044578A1, “Rat highly sensitive to carcinogen” (priority 2001, published 2005)

Tests used:
transgenic rats = experiment: Sensitivity to hepatocarcinogenesis by diethyl nitrosamine, GST-P-positive foci in liver, transgenic rats (mutant connexin 32); format: in vivo, rat; conditions: 200 mg/kg intraperitoneally
Procedure: (§1) The livers taken from each of the above-mentioned rats were fixed with acetone and embedded in paraffine, sliced, and then GST-P, a precancerous hepatic lesion marker, was immunostained for visualization (FIG. 4, left). Further, the number and the area of positive foci per unit area in the GST-P-positive foci were measured with an image analyzer (IPAP, Olympus) (FIG. 4, right).

wild-type rats = experiment: Sensitivity to hepatocarcinogenesis by diethyl nitrosamine, GST-P-positive foci in liver, wild-type rats; format: in vivo, rat; conditions: eight-week-old male, 200 mg/kg intraperitoneally, 20 weeks after the administration, per 1 cm^2
Procedure: as §1

[1] = transgenic rats, eight-week-old male, 20 weeks after the administration, liver, per 1 cm^2

CCN(CC)N=O [diethyl nitrosamine]
sensitivity of the transgenic rats to the hepatocarcinogen (transgenic rats; transgenic rats in comparison to wild-type rats, 20 weeks): extremely high sensitivity | area of the GST-P-positive foci per unit area (1 cm^2) (transgenic rats; [1]): 3.32 mm^2 | number of the GST-P-positive foci per unit area (1 cm^2) (transgenic rats; [1]): 79.8 | area of the GST-P-positive foci per unit area (1 cm^2) (wild-type rats): 0.2 mm^2 | number of the GST-P-positive foci per unit area (1 cm^2) (wild-type rats): 11.1
